Holding throughout (format): biochemical
For one assay, the system named is PAK1, PAK2, PAK3, PAK-4. The assay can be described thus: PAK isoform inhibition profile of example compounds. To be noted: classification of example compounds in the description; underlying IC50 data in Table 8. The source says: In some embodiments, the PAK inhibitor is a Group I PAK inhibitor that inhibits, for example, one or more Group I PAK polypeptides, for example, PAK1, PAK2, and/or PAK3. […] In some embodiments, the PAK inhibitor is a PAK2 inhibitor. In some embodiments, the PAK inhibitor is a PAK3 inhibitor. In some embodiments, the PAK inhibitor is a mixed PAK1/PAK3 inhibitor. […] In some embodiments, the PAK inhibitor is a Group II PAK inhibitor that inhibits one or more Group II PAK polypeptides, for example PAK-4, PAK5, and/or PAK6. In some embodiments, the PAK inhibitor is a PAK4 inhibitor. In some embodiments, the PAK inhibitor is a PAK5 inhibitor. In some embodiments, the PAK inhibitor is a PAK6 inhibitor.
(§1) A fluorescence-based assay format is used to determine IC50 values of test compounds in vitro. Purified PAK kinase is incubated with ATP, and a test compound at various concentrations and a substrate peptide containing two fluorophores. In a second step, the reaction mix is incubated with a site-specific protease that cleaves non-phosphorylated but not phosphorylated substrate peptide, disrupting the FRET signal generated by the two fluorophores in the cleaved peptide (Z′Lyte™ Kinase assay platform; Life Technologies).
(§2) Reagents: 50 mM HEPES, pH 7.5; 0.01% BRIJ-35; 10 mM MgCl2; 1 mM EGTA, 2 uM substrate peptide Ser/Thr20 (proprietary Life Technologies Sequence), PAK enzyme [2.42-30.8 ng for PAK1, 0.29-6 ng for PAK2, 1.5-20 ng for PAK3 and 0.1-0.86 ng for PAK4; actual enzyme amounts depend on lot activity of the enzyme preparation]
(§3) Test compounds are dissolved in DMSO at various concentrations; the final DMSO concentration in the assay reaction is 1%.
(§4) ATP concentration at Km apparent is used in the assay [50 μM ATP for PAK1 assay, 75 μM ATP for PAK2 assay, 100 μM ATP for PAK3 assay, 5 μM ATP for PAK-4 assay] in a total assay volume of […] Assay reactions are incubated at room temperature for 1 hr. Following the kinase reaction, 5 μl of 1:256 dilution of development solution A (Life Technologies) is added and the reaction mix is incubated for an additional 1 hr at room temperature.
(§5) Plates are analyzed in a standard fluorescence plate reader (Tecan or equivalent) using an excitation wavelength of 400 nm and emission wavelengths of 445 nm and 520 nm. Inhibition of kinase reaction is determined by emission ratio=emission@445 nm/emission@520 nm

In a further assay the target is PAK2 (Homo sapiens, UniProt Q13177). The assay can be described thus: Z'Lyte fluorescence-based (FRET) kinase assay, PAK2. To be noted: 75 μM ATP (Km apparent), 1 hr room temperature, 1% DMSO. The protocol:
as §1, §2, §3, §4, §5

A further assay concerns the target PAK1 (Homo sapiens, UniProt Q13153). The assay can be described thus: Z'Lyte fluorescence-based (FRET) kinase assay, PAK1. To be noted: 50 μM ATP (Km apparent), 1 hr room temperature, 1% DMSO. On the procedure:
as §1, §2, §3, §4, §5

The target of a further assay is PAK4 (Homo sapiens, UniProt O96013). Description: Z'Lyte fluorescence-based (FRET) kinase assay, PAK4. To be noted: 5 μM ATP (Km apparent), 1 hr room temperature, 1% DMSO. On the procedure:
as §1, §2, §3, §4, §5

Chain of PAK1 (Q13153 whole entry): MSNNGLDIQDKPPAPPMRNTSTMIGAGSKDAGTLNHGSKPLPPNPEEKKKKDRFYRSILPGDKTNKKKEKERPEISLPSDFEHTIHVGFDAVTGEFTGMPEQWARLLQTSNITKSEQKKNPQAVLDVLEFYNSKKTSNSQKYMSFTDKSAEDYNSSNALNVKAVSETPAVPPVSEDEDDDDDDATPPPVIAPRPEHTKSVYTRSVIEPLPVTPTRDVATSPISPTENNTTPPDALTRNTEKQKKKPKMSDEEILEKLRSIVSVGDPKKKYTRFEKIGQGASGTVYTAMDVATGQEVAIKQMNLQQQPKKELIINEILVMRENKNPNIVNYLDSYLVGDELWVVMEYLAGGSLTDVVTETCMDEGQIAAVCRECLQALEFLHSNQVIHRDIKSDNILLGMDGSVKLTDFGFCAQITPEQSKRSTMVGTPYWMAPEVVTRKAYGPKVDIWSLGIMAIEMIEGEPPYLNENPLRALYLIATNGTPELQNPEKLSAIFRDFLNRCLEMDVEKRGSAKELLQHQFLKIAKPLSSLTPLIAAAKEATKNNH
Chain of PAK4 (O96013 whole entry): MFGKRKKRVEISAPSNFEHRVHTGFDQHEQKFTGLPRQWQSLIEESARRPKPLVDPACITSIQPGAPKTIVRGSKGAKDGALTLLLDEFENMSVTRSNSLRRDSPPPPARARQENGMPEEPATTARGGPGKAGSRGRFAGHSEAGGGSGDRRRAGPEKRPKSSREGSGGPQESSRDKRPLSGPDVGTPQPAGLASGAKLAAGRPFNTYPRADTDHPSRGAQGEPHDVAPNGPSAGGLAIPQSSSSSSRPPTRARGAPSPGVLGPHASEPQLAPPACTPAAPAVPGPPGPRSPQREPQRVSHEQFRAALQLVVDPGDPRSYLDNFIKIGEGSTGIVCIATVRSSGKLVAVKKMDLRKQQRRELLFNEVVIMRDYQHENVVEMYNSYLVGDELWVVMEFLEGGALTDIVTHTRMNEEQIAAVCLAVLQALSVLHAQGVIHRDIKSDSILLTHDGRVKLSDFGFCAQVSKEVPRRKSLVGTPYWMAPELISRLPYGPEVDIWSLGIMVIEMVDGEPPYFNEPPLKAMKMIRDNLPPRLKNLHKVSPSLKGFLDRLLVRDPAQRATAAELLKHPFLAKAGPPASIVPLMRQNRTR
Chain of PAK2 (Q13177 whole entry): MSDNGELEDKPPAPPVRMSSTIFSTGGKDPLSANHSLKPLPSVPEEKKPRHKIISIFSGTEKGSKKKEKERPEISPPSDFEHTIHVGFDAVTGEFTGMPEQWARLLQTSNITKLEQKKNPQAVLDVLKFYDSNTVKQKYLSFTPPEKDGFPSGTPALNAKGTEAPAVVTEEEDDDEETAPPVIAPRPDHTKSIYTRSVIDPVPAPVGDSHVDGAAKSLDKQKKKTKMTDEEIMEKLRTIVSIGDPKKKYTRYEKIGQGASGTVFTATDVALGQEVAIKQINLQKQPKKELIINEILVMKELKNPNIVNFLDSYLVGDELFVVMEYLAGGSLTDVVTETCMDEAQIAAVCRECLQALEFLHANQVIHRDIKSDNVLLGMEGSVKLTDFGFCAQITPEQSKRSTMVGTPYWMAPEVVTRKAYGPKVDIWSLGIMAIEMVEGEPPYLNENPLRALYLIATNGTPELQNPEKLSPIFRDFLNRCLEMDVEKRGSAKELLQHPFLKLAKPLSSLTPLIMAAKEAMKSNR

As for `O=c1c(-c2ccccc2)cc2cnc(Nc3ccc(NC4CCCNC4)cc3)nc2n1Cc1ccccc1C(F)(F)F` (centres unmarked) [Compound 121], the “PAK inhibitor type (isoform profile)” value in the assay with PAK1, PAK2, PAK3, PAK-4 is “inhibits all three Group I PAK isoforms (PAK1, 2 and PAK3) with equal or similar potency”.
As for `COc1ccc(F)cc1Cn1c(=O)ccc2cnc(Nc3ccc(N4CCN(C)CC4)cc3)nc21` [Compound 56], the “PAK inhibitor type (isoform profile)” value in the assay with PAK1, PAK2, PAK3, PAK-4 is “PAK1 inhibitor”.
On to `O=c1ccc2cnc(Nc3ccc(N4CCNCC4)c(F)c3)nc2n1C1CCc2ccccc2C1` (centres unmarked) [Compound 23], for which the “PAK inhibitor type (isoform profile)” value with PAK1, PAK2, PAK3, PAK-4 is listed as “mixed PAK1/PAK2/PAK3/PAK-4 inhibitor”.
What is called IC50 is the concentration that gives 50% inhibition. In the case of `O=c1ccc2cnc(Nc3ccc(N4CCNCC4)c(F)c3)nc2n1Cc1c(Cl)cccc1C1CC1` [Compound 86], at PAK2, the IC50 is less than 1 µM. In addition, the “PAK inhibitor type (isoform profile)” value with PAK1, PAK2, PAK3, PAK-4 is “inhibits all three Group I PAK isoforms (PAK1, 2 and PAK3) with equal or similar potency”.
`CN1CCN(c2ccc(Nc3ncc4ccc(=O)n(Cc5ccccc5SC(F)(F)F)c4n3)cc2)CC1` [Compound 45]: in the assay on PAK1, PAK2, PAK3, PAK-4, the “PAK inhibitor type (isoform profile)” value is listed as “mixed PAK1/PAK2/PAK3/PAK-4 inhibitor”.
In the case of `O=c1ccc2cnc(Nc3ccc(OC4CCCNC4)cc3)nc2n1Cc1ccccc1C(F)(F)F` (centres unmarked) [Compound 15], the “PAK inhibitor type (isoform profile)” value in the assay with PAK1, PAK2, PAK3, PAK-4 is “mixed PAK1/PAK2/PAK3/PAK-4 inhibitor”.
As for `CN(C)CCNc1ccc(-c2ccnc(Nc3ccc(N4CCN(C)CC4)cc3)n2)cn1` [Compound 101], the IC50 at PAK1, at PAK2 and at PAK4 was 1 to 10 µM throughout.
Take `CN1CCN(c2ccc(Nc3ncc4ccc(=O)n(Cc5ccccc5-n5cccn5)c4n3)cc2)CC1` [Compound 55]: in the assay with PAK1, PAK2, PAK3, PAK-4, the “PAK inhibitor type (isoform profile)” value is “PAK1 inhibitor”.
As for `COc1ccccc1Cn1c(=O)ccc2cnc(Nc3ccc(N4CCN(C)CC4)cc3)nc21` [Compound 36], in the assay on PAK1, PAK2, PAK3, PAK-4, the “PAK inhibitor type (isoform profile)” value is listed as “PAK1 inhibitor”.
Take `CN1CCN(c2ccc(Nc3ncc4ccc(=O)n(Cc5ccccc5C(F)(F)F)c4n3)cc2)CC1` [Compound 44]: the “PAK inhibitor type (isoform profile)” value with PAK1, PAK2, PAK3, PAK-4 is “mixed PAK1/PAK2/PAK3/PAK-4 inhibitor”.
In the case of `O=c1ccc2cnc(Nc3ccc(N4CCNCC4)c(F)c3)nc2n1C1Cc2ccccc2C1` [Compound 22], the “PAK inhibitor type (isoform profile)” value with PAK1, PAK2, PAK3, PAK-4 is reported as “mixed PAK1/PAK2/PAK-4 inhibitor”.
As to `CN1CCN(c2ccc(Nc3ncc4ccc(=O)n(Cc5ccccc5Cl)c4n3)cc2)CC1` [Compound 33], the “PAK inhibitor type (isoform profile)” value with PAK1, PAK2, PAK3, PAK-4 was “mixed PAK1/PAK2 inhibitor”.
In the case of `O=c1c(-c2ccccc2)cc2cnc(Nc3ccc(N4CCNCC4)cc3)nc2n1Cc1ccccc1C(F)(F)F` [Compound 120], the IC50 on PAK2 is less than 1 µM. In addition, in the assay on PAK1, PAK2, PAK3, PAK-4, the “PAK inhibitor type (isoform profile)” value was “inhibits all three Group I PAK isoforms (PAK1, 2 and PAK3) with equal or similar potency”.
For the molecule `CCCNc1ccc(-c2ccnc(Nc3ccc(N4CCN(C)CC4)cc3)n2)cn1` [Compound 105], the IC50 on PAK1, at PAK2 and at PAK4 was 1 to 10 µM in each case.
`CN1CCN(c2ccc(N(C)c3nccc(-c4ccc(NCCN)nc4)n3)cc2)CC1` [Compound 114]: the IC50 at PAK1, at PAK2 and at PAK4 was greater than 10 µM throughout.
Consider `CSc1cccc(F)c1Cn1c(=O)ccc2cnc(Nc3ccc(N4CCN(C)CC4)cc3)nc21` [Compound 91, 8-(2-fluoro-6-(methylthio)benzyl)-2-(4-(4-methylpiperazin-1-yl)phenylamino)pyrido[2,3-d]pyrimidin-7(8H)-one], for which the IC50 on PAK2 was less than 1 µM. Also, in the assay on PAK1, PAK2, PAK3, PAK-4, the “PAK inhibitor type (isoform profile)” value is listed as “mixed PAK1/PAK2/PAK3/PAK-4 inhibitor”.
The like results for `Cc1cc(Nc2nccc(-c3ccc(NCCN)nc3)n2)ccc1N1CCN(C)CC1` [Compound 106] were, in that order, 1 to 10 µM and “mixed PAK1/PAK-4 inhibitor”.
For `CN(C)CCOc1ccc(Nc2nccc(-c3ccc(NCCN)nc3)n2)cc1` [Compound 96], the IC50 at PAK1, at PAK2 and at PAK4 was 1 to 10 µM each time.
On to `CN(C)CCOc1ccc(-c2ccnc(Nc3ccc(N4CCN(C)CC4)cc3)n2)cn1` [Compound 102], for which the IC50 on PAK1 is 1 to 10 µM; on PAK2 it was greater than 10 µM; on PAK4 it was greater than 10 µM.
On to `CN1CCCC(Nc2ccc(Nc3ncc4ccc(=O)n(Cc5ccccc5C(F)(F)F)c4n3)cc2)C1` (centres unmarked) [Compound 63], for which the “PAK inhibitor type (isoform profile)” value in the assay with PAK1, PAK2, PAK3, PAK-4 is “mixed PAK1/PAK2/PAK3/PAK-4 inhibitor”.
`CN1CCN(c2ccc(Nc3ncc4ccc(=O)n(Cc5ccccc5OC(F)(F)F)c4n3)cc2)CC1` [Compound 43]: the “PAK inhibitor type (isoform profile)” value in the assay on PAK1, PAK2, PAK3, PAK-4 was “mixed PAK1/PAK2 inhibitor”.
In the case of `CN1CCN(c2ccc(Nc3ncc4ccc(=O)n(Cc5ccccc5OC(F)F)c4n3)cc2)CC1` [Compound 46], the “PAK inhibitor type (isoform profile)” value with PAK1, PAK2, PAK3, PAK-4 is reported as “mixed PAK1/PAK2/PAK3/PAK-4 inhibitor”.
The same measure, in the same setting: with `CN1CCN(c2ccc(Nc3ncc4ccc(=O)n(C5CCc6ccccc6C5)c4n3)cc2)CC1` (centres unmarked) [Compound 19] the entry was “mixed PAK1/PAK2/PAK3/PAK-4 inhibitor”.
On to `O=c1ccc2cnc(Nc3ccc(OC4CCNCC4)cc3)nc2n1Cc1ccccc1C(F)(F)F` [Compound 13], for which, in the assay with PAK1, PAK2, PAK3, PAK-4, the “PAK inhibitor type (isoform profile)” value is “mixed PAK1/PAK2/PAK3/PAK-4 inhibitor”.
As for `CN1CCN(c2ccc(Nc3ncc4ccc(=O)n(C5CCC(C)(C)c6ccccc65)c4n3)cc2)CC1` (centres unmarked) [Compound 21], the “PAK inhibitor type (isoform profile)” value in the assay with PAK1, PAK2, PAK3, PAK-4 is “mixed PAK1/PAK2 inhibitor”.
As for `CN1CCN(c2ccc(Nc3ncc4ccc(=O)n(C5CCc6ccccc65)c4n3)cc2)CC1` (centres unmarked) [Compound 7], the “PAK inhibitor type (isoform profile)” value in the assay with PAK1, PAK2, PAK3, PAK-4 was “PAK1 inhibitor”.
Turning to `CN1CCN(c2ccc(Nc3nccc(-c4ccc(Cl)nc4)n3)cc2)CC1` [Compound 97], the IC50 was 1 to 10 µM on PAK1, greater than 10 µM at PAK2 and greater than 10 µM on PAK4.
Consider `CN1CCN(CCNc2ccc(-c3ccnc(Nc4ccc(N5CCN(C)CC5)cc4)n3)cn2)CC1` [Compound 103], for which the IC50 on PAK1 is 1 to 10 µM; at PAK2 it was greater than 10 µM; at PAK4, greater than 10 µM.
Regarding `CN1CCN(c2ccc(Nc3ncc4ccc(=O)n(CCc5ccccc5)c4n3)cc2)CC1` [Compound 51], the “PAK inhibitor type (isoform profile)” value in the assay on PAK1, PAK2, PAK3, PAK-4 was “mixed PAK1/PAK2/PAK-4 inhibitor”.
`CN1CCN(c2ccc(Nc3nccc(-c4ccc(NCCN5CCOCC5)nc4)n3)cc2)CC1` [Compound 99]: the results for the IC50 at PAK1, at PAK2 and at PAK4 were 1 to 10 µM, greater than 10 µM and 1 to 10 µM, respectively.
Take `CN(c1ccc(Nc2ncc3ccc(=O)n(Cc4ccccc4C(F)(F)F)c3n2)cc1)C1CCCNC1` (centres unmarked) [Compound 14]: the “PAK inhibitor type (isoform profile)” value in the assay with PAK1, PAK2, PAK3, PAK-4 is “mixed PAK1/PAK2/PAK3/PAK-4 inhibitor”.
With `CN1CCN(c2ccc(Nc3ncc4ccc(=O)n(Cc5c(F)cccc5C(F)(F)F)c4n3)cc2)CC1` [Compound 60], the IC50 on PAK2 was less than 1 µM. Also, the “PAK inhibitor type (isoform profile)” value in the assay with PAK1, PAK2, PAK3, PAK-4 is recorded as “mixed PAK1/PAK2/PAK3/PAK-4 inhibitor”.
Turning to `CN1CCN(c2ccc(Nc3ncc4ccc(=O)n(C5CCCC5)c4n3)cc2)CC1` [Compound 2], in the assay with PAK1, PAK2, PAK3, PAK-4, the “PAK inhibitor type (isoform profile)” value is “PAK1 inhibitor”.
For the molecule `CCOc1ccccc1Cn1c(=O)ccc2cnc(Nc3ccc(N4CCN(C)CC4)cc3)nc21` [Compound 64], the “PAK inhibitor type (isoform profile)” value in the assay with PAK1, PAK2, PAK3, PAK-4 is “inhibits all three Group I PAK isoforms (PAK1, 2 and PAK3) with equal or similar potency”.
On the same count and under the same terms, with `CN1CCN(c2ccc(Nc3ncc4ccc(=O)n(C5Cc6ccccc6C5)c4n3)cc2)CC1` [Compound 18] the entry was “mixed PAK1/PAK-4 inhibitor”.
For the molecule `CN1CCN(c2ccc(Nc3ncc4ccc(=O)n(Cc5cccc(Cl)c5)c4n3)cc2)CC1` [Compound 34], the figures for the IC50 at PAK1, at PAK2 and at PAK4 were 1 to 10 µM, greater than 10 µM and greater than 10 µM, respectively.

The values above are taken from patent US8674095B2, “Compounds for treating neuropsychiatric conditions” (Afraxis Holdings, Inc., priority 2008, dated 2014).
